Source: US5554653A, “Inhibitors of HIV protease useful for the treatment of AIDS” (Eli Lilly and Company, priority 1992, dated 1996)
Values after ≈ are worked out from the molar mass of the structure shown.

What follows are molecules tested against T1, HIV-1 protease (Human immunodeficiency virus type 1 group M subtype B, UniProt P04585) (assay: biochemical). Conditions: not given.
T1 construct: Purified HIV-1 protease was obtained as described above; made in house; host or cells: E. coli K12 L507/pHP10D (NRRL B-18560)
Format: biochemical
Procedure: C. Preparation of Protease Fraction
A culture of E. coli K12 L507/pHP10D was grown to mid-log phase at 32° C. in LB media containing 12.5 μg/ml tetracycline. The cultivation temperature was quickly elevated to 40° C. to induce gene expression, and the cells were allowed to grow for 2.5 hours at this temperature before the culture was quickly chilled on ice. The cells were centrifuged and the cell pellet was resuspended in 20 mL 50 mmol MES buffer (pH 6.0) containing 1 mmol EDTA, 1 mmol DTT, 1 mmol PMSF and 10% glycerol ("Buffer A"). Cells were lysed by sonication using a Fischer Model 300 Dismembrator and a microtip probe. Following centrifugation at 27,000×g, the supernatant was diluted to a total volume of 60 mL with Buffer A and loaded onto a 2.0×19 cm QAE-Sepharose column (1 mL/min, 4° C.), that had been equilibrated in Buffer A. The column was washed isocratically for 180 min and then eluted with a gradient eluent of 0-1.0M sodium chloride in Buffer A over 120 min. Enzymatic activity was measured by HPLC using the synthetic peptide SQNYPIV as described in Margolin et al., Biochem. Biophys. Res. Commun., 167, 554-560 (1990); the production of the p1 peptide (SQNY) was measured.
The active fractions were combined, made 1.2M in ammonium sulfate, and applied to a 2.0×18 cm hexyl agarose column that had been equilibrated in Buffer A containing 1.2M ammonium sulfate. The sample was loaded at a flow rate of 1 mL/min at 4° C., washed with the equilibration buffer for 240 min (1 mL/min) and then eluted using a reverse linear gradient of 1.2-0M ammonium sulfate in Buffer A for 120 min at the same flow rate. The column was then washed isocratically in Buffer A for 120 min.
The active fractions were combined, concentrated to 10 mL using an Amicon stirred cell with a YM-10 membrane and then applied to a MonoS cation exchange column (1.0×10 cm) that had been equilibrated in Buffer A. The sample was loaded at a flow rate of 1 mL/min at 25° C. After washing isocratically for 30 min, the protease was eluted using a linear gradient of 0-0.45M sodium chloride in Buffer A over 40 min. The column was washed isocratically in Buffer A containing 0.45M sodium chloride for 30 min.
The active fractions were combined and concentrated to 200 μL using an Amicon stirred cell and a YM-10 membrane and then the protease was applied to a Superose 6 size exclusion column equilibrated in Buffer A containing 0.1M sodium chloride.
The purified peptide was labeled with a fluorescent marker at the C-terminal end for use in the Pandex assay. N^α -Biotin-[…]OH SEQ ID NO:3. (1.206 g, 0.936 mmol) was dissolved in 100 mL of 0.1M sodium borate, pH 9.5. Then, a solution of 3 g (7.7 mmol) of fluorescein isothiocyanate in 15 mL dimethyl sulfoxide was added to the reaction mixture in 10 equal portions over two hours. The resulting mixture was allowed to react for one hour after the final addition. The solution was adjusted to pH 3 using 5N hydrochloric acid, resulting in the formation of a precipitate which was removed by centrifugation.
E. Fluorescence HIV-1 Protease Inhibitor Assay
The following buffers and solutions are used in the Fluorescence HIV-1 Protease Inhibitor Assay:
MES-ALB Buffer: 0.05M 4-morpholineethane
Avidin Coated 0.1% solution of Fluoricon
Beads Solution: Avidin Assay Particles
(Avidin conjugated to solid
polystyrene beads, 0.6-0.8
microns in diameter in TBSA
27 IU/mL of purified HIV-1
protease in MES-ALB buffer
(1 IU equals the amount of
enzyme required to hydrolyze
1 μmole of substrate per
To each well of a round bottom, 96-well plate is added 20 μL of the Enzyme Solution followed by 10 μL of the compound to be evaluated in a 20% aqueous dimethylsulfoxide solution. Purified HIV-1 protease was obtained as described above.

Question: “[2R-(2R*,3S*,6S*)]-N-t-Butyl-2-[2-hydroxy-3-phenylmethyl-4-aza-5-oxo-6-N(trifluoromethylcarbonyl)amino-7-naphth-2-ylthio]heptyl benzamide [Example 42]” was tested. Which “Fluorescence Assay IC50” value did it give?
Answer: Its value is 0.00074 µg/mL.

Same assay, conditions: read-out: Fluorescence Assay IC3

Question: `CC(C)(C)NC(=O)c1ccccc1C[C@@H](O)[C@H](Cc1ccccc1)NC(=O)[C@@H](CSc1ccccc1)NC(=O)OC(C)(C)C` [Example 22A, [2R-(2R *,3S*,6S*)]-N-t-Butyl-2-[2-hydroxy-3-phenylmethyl-4-aza-5-oxo-6-N(t-butoxycarbonyl)amino-7-phenylthio]heptyl benzamide] was tested. Which IC3 did it give?
Answer: The IC3 was 2 µg/mL.

Same assay, conditions: read-out: Fluorescence Assay IC8

Question: Which IC8 does the source give for `CC(=O)N[C@@H](CSc1ccccc1)C(=O)N[C@@H](Cc1ccccc1)[C@H](O)Cc1ccccc1C(=O)NC(C)(C)C` [Example 20B, [2R-(2R*,3S*,6R*)]-N-t-Butyl-2-[2-hydroxy-3-phenylmethyl-4-aza-5-oxo-6-N(ethanoyl)amino-7-phenylthio]heptyl benzamide] here?
Answer: The IC8 was 1 µg/mL.

Question: For `CC(C)(C)NC(=O)c1ccccc1C[C@@H](O)[C@H](Cc1ccccc1)NC(=O)[C@H](Cc1ccccc1)NC=O` [Example 40], which IC8 is on record?
Answer: The IC8 was 1 µg/mL.

Same assay, conditions: read-out: Fluorescence Assay IC12

Question: `CC(=O)N[C@@H](CSCc1ccccc1)C(=O)N[C@@H](Cc1ccccc1)[C@H](O)Cc1ccccc1C(=O)NC(C)(C)C` [Example 32, [2R-(2R*,3S*,6R*)]-N-t-Butyl-2-[2-hydroxy-3-phenylmethyl-4-aza-5-oxo-6-N-(ethanoyl)amino-7-benzylthio]heptyl benzamide] was tested. Which IC12 did it give?
Answer: Its IC12 is 1 µg/mL.

Same assay, conditions: read-out: Fluorescence Assay IC45

Question: Which IC45 does the source give for `CSCC[C@H](NC(C)=O)C(=O)N[C@@H](Cc1ccccc1)[C@H](O)Cc1ccccc1C(=O)NC(C)(C)C` [Example 21, [2R-(2R*,3S*,6S*)]-N-t-Butyl-2-[2-hydroxy-3-phenylmethyl-4-aza-5-oxo-6-N(ethanoyl)amino-8-methylthio]octyl benzamide] here?
Answer: Its IC45 is 1 µg/mL (≈ 1.95 µM).

Same assay, conditions: read-out: Fluorescence Assay IC50 (converted)

Question: How did the IC50 turn out when `CC(=O)N[C@H](CSc1ccccc1)C(=O)N[C@@H](Cc1ccccc1)[C@H](O)Cc1ccccc1C(=O)NC(C)(C)C` (relative stereo) [Example 20A, [2R(2R*,3S*,6S*)]-N-t-Butyl-2-[2-hydroxy-3-phenylmethyl-4-aza-5-oxo-6-N(ethanoyl)amino-7-phenylthio]heptyl benzamide] was run?
Answer: The IC50 was 130 nM.

Question: `CC(C)(C)NC(=O)c1ccccc1C[C@@H](O)[C@H](Cc1ccccc1)NC(=O)[C@@H](C[S+]([O-])Cc1ccccc1)NS(C)(=O)=O` (stereo partly drawn) [Example 19D, [2R-(2R*,3S*,6S*)]-N-t-Butyl-2-[2-hydroxy-3-phenylmethyl-4-aza-5-oxo-6-N(methylsulfonyl)amine-7-benzylsulfinyl]heptyl benzamide] was tested. Which IC50 did it give?
Answer: The IC50 was 2.23 nM.

Question: How did the IC50 turn out when `CC(=O)N[C@H](CS(=O)(=O)c1ccc2ccccc2c1)C(=O)N[C@@H](Cc1ccccc1)[C@H](O)Cc1ccccc1C(=O)NC(C)(C)C` [Example 16B, [2R-(2R*,3S*,6S*)]-N-t-Butyl-2-[2-hydroxy-3-phenylmethyl-4-aza-5-oxo-6-N(ethanoyl)amino-7-naphth-2-ylsulfonyl]heptyl benzamide] was run?
Answer: The IC50 was 0.186 nM.

Question: With `CC(C)(C)NC(=O)c1ccccc1C[C@@H](O)[C@H](Cc1ccccc1)NC(=O)[C@H](CC(N)=O)NS(=O)(=O)c1cccc2ccccc12` [Example 33, [2R-(2R*,3S*,6S*)]-N-t-Butyl-2-[2-hydroxy-3-phenylmethyl-4-aza-5-oxo-6-N (naphth-1-ylsulfonyl)amino-7-carbamoyl]heptyl benzamide] as the molecule, how does the IC50 read?
Answer: Its IC50 is 68.2 nM.

Question: Which IC50 does the source give for `CC(=O)N[C@H](CS(=O)(=O)c1ccc2ccccc2n1)C(=O)N[C@@H](Cc1ccccc1)[C@H](O)Cc1ccccc1C(=O)NC(C)(C)C` [Example 24C, [2R-(2R*,3S*,6S*)]-N-t-Butyl-2-[2-hydroxy-3-phenylmethyl-4-aza-5-oxo-6-N(ethanoyl)amino-7-quinolin-2-ylsulfonyl]heptyl benzamide] here?
Answer: Its IC50 is 0.248 nM.

Question: For `Cn1nnnc1[S+]([O-])C[C@@H](NS(C)(=O)=O)C(=O)N[C@@H](Cc1ccccc1)[C@H](O)Cc1ccccc1C(=O)NC(C)(C)C` (stereo partly drawn) [Example 39D, [2R-(2R*,3S*,6S*)]-N-t-Butyl-2-[2-hydroxy-3-phenylmethyl-4-aza-5-oxo-6-N(methylsulfonyl)amino-7-N-(methyl)tetrazolylsulfinyl)]heptyl benzamide], which IC50 is on record?
Answer: The IC50 was 1.4 nM.

Question: With `CC(C)(C)NC(=O)c1ccccc1C[C@@H](O)[C@H](Cc1ccccc1)NC(=O)[C@@H](CSc1ccc(F)cc1)NC(=O)OC(C)(C)C` [Example 37A, [2R-(2R*,3S*,6S*)]-N-t-Butyl-2-[2-hydroxy-3-phenylmethyl-4-aza-5-oxo-6-N(t-butoxycarbonyl)amino-7-(p-fluorophenylthio)]heptyl benzamide] as the molecule, how does the IC50 read?
Answer: The IC50 was greater than 1570 nM.

Question: Which IC50 does the source give for `CC(C)(C)NC(=O)c1ccccc1C[C@@H](O)[C@H](Cc1ccccc1)NC(=O)[C@@H](CSc1ccccc1)NS(C)(=O)=O` [Example 22C, [2R-(2R*,3S*,6S*)]-N-t-Butyl-2-[2-hydroxy-3-phenylmethyl-4-aza-5-oxo-6-N(methylsulfonyl)amino-7-phenylthio]heptyl benzamide] here?
Answer: Its IC50 is 18.9 nM.

Question: Which IC50 does the source give for `CC(C)(C)NC(=O)c1ccccc1C[C@@H](O)[C@H](Cc1ccccc1)NC(=O)[C@@H](CS(=O)(=O)c1ccc2ccccc2c1)NS(C)(=O)=O` [Example 17B, [2R-(2R*,3S*,6S*)]-N-t-Butyl-2-[2-hydroxy-3-phenylmethyl-4-aza-5-oxo-6-N(methylsulfonyl)amino-7-naphth-2-ylsulfonyl]heptyl benzamide] here?
Answer: The IC50 was 0.191 nM.

Question: For `CC(C)(C)NC(=O)c1ccccc1C[C@@H](O)[C@H](Cc1ccccc1)NC(=O)[C@@H](CS(=O)(=O)Cc1ccccc1)NS(C)(=O)=O` [Example 19E, [2R-(2R*,3S*,6S*)]-N-t-Butyl-2-[2-hydroxy-3-phenylmethyl-4-aza-5-oxo-6-N(methylsulfonyl)amino-7-benzylsulfonyl]heptyl benzamide], which IC50 is on record?
Answer: The IC50 was 4.66 nM.

Question: How did the IC50 turn out when `CC(C)(C)NC(=O)c1ccccc1C[C@@H](O)[C@H](Cc1ccccc1)NC(=O)[C@@H](CS(=O)(=O)c1ccc2ccccc2n1)NS(C)(=O)=O` [Example 23D, [2R-(2R*,3S*,6S*)]-N-t-Butyl-2-[2-hydroxy-3-phenylmethyl-4-aza-5-oxo-6-N(methylsulfonyl)amino-7-quinolin-2-ylsulfonyl]heptyl benzamide] was run?
Answer: The IC50 was 1.18 nM.

Question: For `CC(C)(C)NC(=O)c1ccccc1C[C@@H](O)[C@H](Cc1ccccc1)NC(=O)[C@@H](CS(=O)(=O)c1ccccc1)NS(C)(=O)=O` [Example 22D, [2R-(2R*,3S*,6S*)]-N-t-Butyl-2-[2-hydroxy-3-phenylmethyl-4-aza-5-oxo-6-N(methylsulfonyl)amino-7-phenylsulfonyl]heptyl benzamide], which IC50 is on record?
Answer: The IC50 was 2.54 nM.

Question: `Cn1nnnc1SC[C@@H](NS(C)(=O)=O)C(=O)N[C@@H](Cc1ccccc1)[C@H](O)Cc1ccccc1C(=O)NC(C)(C)C` [Example 39C, [2R-(2R*,3S*,6S*)]-N-t-Butyl-2-[2-hydroxy-3-phenylmethyl-4-aza-5-oxo-6-N(methylsulfonyl)amino-7-N-(methyl)tetrazolylthio)]heptyl benzamide] was tested. Which IC50 did it give?
Answer: The IC50 was 14.6 nM.

Question: Which IC50 does the source give for `CCCC(=O)N[C@H](CC(=O)OCc1ccccc1)C(=O)N[C@@H](Cc1ccccc1)[C@H](O)Cc1ccccc1C(=O)NC(C)(C)C` [Example 7, [2R-(2R*, 3S *, 6R*)]-N-t-butyl-2-[2-hydroxy-3-phenylmethyl-4-aza-5-oxo-6-N(butanoyl)amino-7-benzyloxycarbonyl]heptyl benzamide] here?
Answer: The IC50 was 115 nM.

Question: With `CC(C)(C)NC(=O)c1ccccc1C[C@@H](O)[C@H](Cc1ccccc1)NC(=O)[C@@H](CC(=O)Nc1ccc2ccccc2n1)NS(C)(=O)=O` [Example 9, [2R-(2R*, 3S*, 6R*)]-N-t-butyl-2-[2-hydroxy-3-phenylmethyl-4-aza-5-oxo-6-N-(methylsulphonyl)amino-8-oxo-8-N (quinolin-2-yl)amino]octyl benzamide] as the molecule, how does the IC50 read?
Answer: Its IC50 is 13.6 nM.
